pEC50, pKd: −log10 of the molar value. Several values for one entry are separate records, joined by “and”; a condition that tells them apart may be missing. Equal entries are not always repeated. One block for each compound: values may come before it.
Experiments:
[1] = molecular target: T1, DmOctβ1 receptor (Drosophila melanogaster, UniProt Q9VCZ3); experiment: Stopped-flow flash photolysis of caged octopamine in Fluo-4-loaded flpTM-DmOctβ1 cells; assay type: cell-based; settings: for response time after UV-flash: 10 µM caged compound, 50 ms flash, 100 µM IBMX
T1 construct: expressed in transfected cells; host or cells: flpTM cells (HEK293 flpIn, Invitrogen #750-07, carrying the CNGA2 variant)
T1 sequence (Q9VCZ3 1-508): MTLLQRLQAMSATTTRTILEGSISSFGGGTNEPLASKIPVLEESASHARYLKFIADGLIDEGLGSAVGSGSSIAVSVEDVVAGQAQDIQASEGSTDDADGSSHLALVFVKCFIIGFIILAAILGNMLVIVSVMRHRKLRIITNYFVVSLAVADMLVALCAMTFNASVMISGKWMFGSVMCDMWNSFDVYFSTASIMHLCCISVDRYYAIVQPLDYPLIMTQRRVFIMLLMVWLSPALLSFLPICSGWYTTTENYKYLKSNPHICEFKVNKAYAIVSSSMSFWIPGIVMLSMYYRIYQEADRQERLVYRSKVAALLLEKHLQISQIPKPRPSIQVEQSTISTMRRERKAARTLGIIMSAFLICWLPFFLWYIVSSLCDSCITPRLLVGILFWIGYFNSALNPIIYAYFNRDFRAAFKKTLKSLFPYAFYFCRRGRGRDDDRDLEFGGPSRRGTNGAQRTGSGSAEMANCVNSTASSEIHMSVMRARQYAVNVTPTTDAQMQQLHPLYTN
Excerpt: Neutral density filters that regulate the transmission of light (5%, 25%, 50%, 80%, 100%) were installed, allowing application of different light intensities.
In the previous stopped-flow experiments, we initiated the DmOctβ1 receptor-activated reaction cascade by mixing cells with increasing concentrations of octopamine. Now, we used a similar strategy but substituted the biogenic amine for a constant concentration of octopamine fused to a coumarin-based cage group ({8-[bis(carboxymethyl)aminomethyl]-6-bromo-7-hydroxycoumarin-4-yl}methoxycarbon-yl; BBHCMOC-octopamine) from which the biologically active octopamine was released by light flashes. The Fluo-4-loaded flpTM-DmOctβ1 cells were mixed with a final concentration of 10 µM BBHCMOC-octopamine in the cuvette of the stopped-flow apparatus. After 2 s, a UV-flash was triggered for 50 ms and the fluorescence intensities were recorded. The time when triggering the light flash was defined as time point t = 0. Different light intensities were successively applied (5%, 25%, 50%, 80%, 100% intensity). To avoid fluctuations in the [cAMP]i due to cell-endogenous phosphodiesterase activity, the experiments were performed in the presence of 100 µM IBMX. Figure 7 summarizes the results that were obtained with BBHCMOC-octopamine.
For the photolysis of the caged compounds with ultraviolet (UV)-light, a Xe-flash lamp (JML-C2; Rapp Opto Electronics, Wedel, Germany) was coupled to the cuvette via an UV-light permeable light guide (Schott). A UV-2 interference filter was placed between the Xe-flash lamp and light guide to select for the UV-light needed for the photolysis of the caged compounds. Additionally, it prevents the photomultiplier from being hit by light that is able to pass the emission filter. […] To maximize the detection of the emission light, a test solution containing 50 nM of fluorescein in ES was added to the cuvette and the light guide was fixed to the Xe/Hg-lamp at a position where the photomultiplier detected maximal intensity.

[2] = in vitro; read-out: dissociation constant (Kd) for Ca2+; cited from earlier work
[3] = test system: cell endogenous adenylyl cyclases; experiment: Ca2+ fluorimetry in plate reader (96 MWP), flpTM-DmOctβ1 cells stimulated with NKH477; assay type: cell-based, human; settings: for logEC50 ± SD: given as logEC50 (negative)
Method: In another series of experiments, DmOctβ1 receptor-expressing cell lines were incubated with NKH477, a water soluble agonist of membrane bound adenylyl cyclases, the downstream effectors in DmOctβ1 signaling. Before stimulating the adenylyl cyclase activity, NKH477 has to cross the cell membrane and then binds to the catalytic domain of the enzyme. As before, the flpTM-DmOctβ1 cells were seeded in 96 MWPs and loaded with Fluo-4. In parallel, cells stably co-transfected with GCaMP3.0 were examined (flpTM-DmOctβ1-GCaMP3.0). All of the measurements were performed in the presence of 100 µM IBMX. […] In comparison to the octopamine-evoked responses, the EC50 values for NKH477 differed strongly, with values in the nanomolar range for octopamine and in the micromolar range for NKH477, but confirming the previous data on the octopamine receptors and adenylyl cyclases, respectively. […] Whether this effect was due to differences in the cytosolic distribution of both Ca^2+ detectors and/or the spatial presence of adenylyl cyclase isoforms in membrane domains has not been experimentally addressed.
In this study, we made use of previously established stably transfected cell lines. Briefly, human embryonic kidney cells (HEK293; #85120602, ECACC, Porton Down, Salisbury, UK) were transfected with 10 µg of DmOctα1B receptor-encoding construct by a modified calcium phosphate method. The cell line constitutively expressing the DmOctα1B receptors was propagated in MEM+Glutamax medium containing 10% (v/v) fetal calf serum, 1% (v/v) non-essential amino acids, 1% (v/v) antibiotics/antimycotics, and […] Geneticin (all obtained from ThermoFisher Scientific/Gibco; Dreieich, Germany). A related human embryonic kidney 293-based cell line (HEK293; flpIn cells; Invitrogen/ThermoFisher Scientific; #750-07) that was transfected with a gene encoding a variant of the A2-subunit of the olfactory cyclic nucleotide-gated ion channel (CNG; [31]; flpTM cells, provided by Sibion Biosciences, Jülich, Germany) was transfected with 10 µg of DmOctβ1 receptor-encoding construct. The cell line constitutively expressing the CNG channels and DmOctβ1 receptors was named flpTM-DmOctβ1 and propagated in DMEM+Glutamax medium containing 10% (v/v) fetal calf serum, 1% (v/v) penicillin/streptomycin, and 100 µg/mL Hygromycin, as well as […] Geneticin (all obtained from ThermoFisher Scientific/Gibco). […]
To monitor the intracellular changes of Ca^2+, the cells stably transfected with the genetically encoded calcium indicator GCaMP3.0 (Tian et al., 2009) or loaded with the calcium-sensitive fluorescent dye Fluo-4-AM (Life Technologies/Thermo Fisher Scientific) were analyzed in the plate reader FLUOstar Omega (BMG Labtech, Ortenberg, Germany). […]

[4] = test system: adenylyl cyclases; experiment: Stopped-flow Ca2+ fluorescence measurements, flpTM-DmOctβ1 cells, NKH477; assay type: cell-based, human
Method: In successive stopped-flow measurements, the flpTM-DmOctβ1 cells loaded with Fluo-4 were stimulated with increasing octopamine (1 nM–3 µM) and NKH477 (100 nM–300 µM) concentrations. The fluorescence intensities were monitored over 80 s and 100 s, respectively (Figure 4A1,B1). The fluorescence intensities increased and finally reached a plateau with increasing concentrations of both of the ligands. However, the saturating ligand concentrations differed strongly between octopamine (≥300 nM) and NKH477 (≥100 µM). By plotting the maximal changes in fluorescence (ΔF/F0) against ligand concentrations, concentration–response curves were generated and EC50 values were calculated (Figure 4C). […] As observed for the DmOctα1B cell lines (see Figure 3D), the signal response times of flpTM-DmOctβ1 cells were faster at higher ligand concentrations (Figure 4A2,B2). In Figure 4D, the time until the signals were detected (for details, see Materials and Methods, Section 4.4) are plotted for the ligand concentrations covering the calculated EC50 value (dynamic range) and for saturating concentrations (saturating range). The signal response times of the flpTM-DmOctβ1 cells for octopamine were in the range of 30 s (dynamic range) and 6 s (saturating range), whereas the signal detection upon NKH477 application was observed after 50 s (dynamic range) and 16 s (saturating range). The signal response times were about three- to five-fold faster at the saturating concentrations in comparison to the octopamine and NKH477 concentrations in the dynamic range.
As described for the Fluo-4-loaded flpTM-DmOctβ1 cells, similar experiments were performed with the flpTM-DmOctβ1-GCaMP3.0 cells (Figure 5). The cells were successively mixed with increasing concentrations of octopamine (30 pM–100 nM) or NKH477 (30 nM–100 µM) and the fluorescence intensities were recorded over 100 s. For both of the ligands, increasing ligand concentrations led to an increase in the fluorescence emission finally reaching a plateau (Figure 5A1,B1).
For the stopped-flow measurements, the SFM-400 system (BioLogic, Münster, Germany) was used. The main component of the stopped-flow setup is the SFM-400 module with four 10 mL syringes, which can be filled by external valves. The syringes are driven by step motors. The reactants can be mixed in three individual mixing chambers (M1–M3). The volume between M1 and M2 is 21 µL, and 31 µL between M2 and M3. The observation chamber is a quartz cuvette (FC-15) with a reaction volume of 31 µL, installed behind M3. To avoid fluctuations of the reaction mixture in the cuvette, which might lead to noisy and inconsistent signals, a hard stop valve located behind the cuvette can be closed after injection of the reactants. The stopped-flow module is controlled via a MPS-60 control unit (BioLogic). Data acquisition and operation of the system were performed with the Bio-Kine 32 v4.74 software (BioLogic).
The reactions in the cuvette were analyzed via the changes in the fluorescence. A 150 W Xe/Hg-lamp (ALX-220; BioLogic) was used as a light source for the excitation. The excitation light was guided via a light guide towards the cuvette. To determine the wavelength of the excitation light, a 482 nm bandpass filter (482/35 nm BrightLine® single-band bandpass filter; Semrock, Rochester, NY, USA) was used. A heat protection filter (3 mm; KG1, Schott; Mainz, Germany) was placed between the Xe/Hg-lamp and the excitation filter. The fluorescence was detected with a photomultiplier (PMS 200, BioLogic) installed rectangularly to the light path of the excitation light. Between the cuvette and the photomultiplier tube a 535 nm bandpass emission filter (XF3007 535AF35; Horiba, Oberursel, Germany) was placed to select for the emission light being detected by the photomultiplier. A voltage of 600 V was applied to the photomultiplier.
The fluorescence measurements were performed either directly with the cells expressing GCaMP3.0 or after loading the cells with Fluo-4-AM. […]

[5] = test system: CNG channel (A2 homomer); settings: read-out: EC50 for opening the CNG channel, electrophysiological experiments, ref Ludwig et al., 1990; cited from earlier work
[6] = flpTM-DmOctβ1-GCaMP3.0 cells, 100 µM IBMX
[7] = flpTM-DmOctβ1 cells loaded with Fluo-4, 100 µM IBMX

response time after UV-flash ([1]; 5% light intensity): about 16 s
response time after UV-flash ([1]; 100% light intensity): 6 s and ≈ 6 s
octopamine released by photolysis ([1]; from 10 µM BBHCMOC-octopamine, based on quantum yield): approximately 1 µM
SMILES: O=C(O)CN(CC(=O)O)Cc1c(O)c(Br)cc2c(COC(=O)NCC(O)c3ccc(O)cc3)cc(=O)oc12 (centres unmarked) [BBHCMOC-octopamine]

SMILES: Cc1ccc(N(CC(=O)O)CC(=O)O)c(OCCOc2cc(-c3c4cc(F)c(=O)cc-4oc4cc(O)c(F)cc34)ccc2N(CC(=O)O)CC(=O)O)c1 [Fluo-4]
pKd [2]: 6.46

pEC50 [3, 6]: 7.00
pEC50 [3, 7]: 5.35
pEC50 ([4]; stopped-flow, flpTM-DmOctβ1-GCaMP3.0 cells, mean ± SEM): 5.68 and 5.67
pEC50 ([4]; stopped-flow, flpTM-DmOctβ1 cells loaded with Fluo-4, mean ± SEM): 5.41
SMILES: C=C[C@@]1(C)CC(=O)[C@]2(O)[C@@]3(C)[C@@H](O)CCC(C)(C)[C@@H]3[C@H](OC(=O)CCN(C)C)[C@H](OC(C)=O)[C@@]2(C)O1.Cl [NKH477]
logEC50 ± SD [3, 6]: −6.91 ± 0.03
logEC50 ± SD [3, 7]: −5.34 ± 0.09
Signal Response Time ([4]; dynamic range (concentrations around EC50), flpTM-DmOctβ1-GCaMP3.0 cells): 40 s
Signal Response Time ([4]; dynamic range (concentrations around EC50), flpTM-DmOctβ1 cells loaded with Fluo-4): 50 s
Signal Response Time ([4]; saturating concentration, flpTM-DmOctβ1-GCaMP3.0 cells, mean ± SEM): 13 s and 12.70 ± 0.52 s
Signal Response Time ([4]; saturating concentration, flpTM-DmOctβ1 cells loaded with Fluo-4, mean ± SEM): 13.35 ± 0.82 s
Signal Response Time ([4]; saturating ligand concentration, flpTM-DmOctβ1 cell lines, Fluo-4 and GCaMP3.0): 13 s
saturating ligand concentration ([4]; stopped-flow, flpTM-DmOctβ1 cells loaded with Fluo-4): ≥ 100 µM

SMILES: Nc1ncnc2c1ncn2[C@@H]1O[C@@H]2COP(=O)(O)O[C@H]2[C@H]1O [cAMP, cyclic adenosine monophosphate]
pEC50 [5]: ~5.70

Reference: PMC9369311, “Examination of Intracellular GPCR-Mediated Signaling with High Temporal Resolution” (International Journal of Molecular Sciences, 2022)
